Data from US7544773B2 (priority 2003, dated 2009).
No end group written: not given here.

Biological target: Caf1M-Caf1, Caf1M-(Caf1)2 and Caf1M-(Caf1)3 complexes (Yersinia pestis, UniProt P26948)
Sequence (P26948 22-170 limits assumed, one chain of several): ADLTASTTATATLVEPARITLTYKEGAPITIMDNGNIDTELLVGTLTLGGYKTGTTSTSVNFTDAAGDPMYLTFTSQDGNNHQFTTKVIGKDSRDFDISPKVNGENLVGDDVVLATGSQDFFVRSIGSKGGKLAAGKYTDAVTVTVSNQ

## ATATLV
  dissociation of the complexes to free Caf1M and Caf1: some dissociation
  formation of high molecular weight complexes (polymerization): polymerization was completely inhibited
